# According to US20250134667A1, “BIOABSORBABLE AND PHOTOCURABLE COMPOSITION, BIOABSORBABLE GUIDED TISSUE REGENERATION COMPOSITION, AND GRAFTING METHOD USING SAME” (priority 2022, published 2025):
# Peptide text beside a SMILES is read from it.
# Assays:
# pNFκB = assay: Western blot of pNFkB in Raw264.7 cells; assay type: cell-based, mouse; settings: only the peptide, no LPS
# Description: (§1) Raw264.7 cells were purchased from ATCC (American Type Culture Collection) and used in the experiment. Raw264.7 cells were cultured in a CO2 incubator at 37° C. supplied with 5% CO2 and 95% air using DMEM (Dulbecco's modified Eagle medium) medium supplemented with 10% FBS and 100 units/ml antibiotics (penicillin-streptomycin).
# […] After 8 hours, the treated cells were collected, protease inhibitor cocktail and phosphatase inhibitor cocktail were added to Radioimmunoprecipitation assay buffer (RIPA buffer solution, Thermo Fisher, 89900), and the cells were treated to lyse the cells. After centrifuging the cell lysate and collecting the supernatant, the concentration of the cell lysate was measured using a bicinchoninic acid assay (BCA assay, Thermo Fisher, 23227), and RIPA buffer solution was added thereto to prepare the cell lysate to a final concentration of 5 mg/mL. Then, it was mixed with a buffer solution including 1 M Tris-HCl (pH 6.8), 50% glycerol, and 10% SDS in a 4:1 ratio, and then sodium dodecyl sulfate-poly acrylamide gel electrophoresis (SDS-PAGE) was performed. […]
# plkBa = assay: Western blot of plkBa in Raw264.7 cells; assay type: cell-based, mouse; settings: only the peptide, no LPS
# Description: as §1
# Raw264.7 cells were treated with 200 μM of the peptide having the amino acid sequence of SEQ ID NO: 1 for 30 minutes, and then treated with 1 μg/ml LPS (lipopolysaccharide, Merck, L3024). After 8 hours, the treated cells were collected, protease inhibitor cocktail and phosphatase inhibitor cocktail were added to Radioimmunoprecipitation assay buffer (RIPA buffer solution, Thermo Fisher, 89900), and the cells were treated to lyse the cells. After centrifuging the cell lysate and collecting the supernatant, the concentration of the cell lysate was measured using a bicinchoninic acid assay (BCA assay, Thermo Fisher, 23227), and RIPA buffer solution was added thereto to prepare the cell lysate to a final concentration of 5 mg/mL. Then, it was mixed with a buffer solution including 1 M Tris-HCl (pH 6.8), 50% glycerol, and 10% SDS in a 4:1 ratio, and then sodium dodecyl sulfate-poly acrylamide gel electrophoresis (SDS-PAGE) was performed. […]
# Raw264.7 cells = assay: Cell penetration ability at the cellular level (confocal microscopy); assay type: cell-based, mouse; settings: 50, 100, 200 μM, 1 hour
# Description: The N-terminus of the peptide having the amino acid of SEQ ID NO: 1 prepared in Example 1 was fluorescently labeled with Rhodamine B (Tokyo chemical industry Co., LTD., A5102). Raw264.7 cells were distributed 3×10^4 each into a 4-well chamber and cultured in DMEM medium for 24 hours to stabilize the cells. After 24 hours, fluorescently labeled peptide was added to the medium at concentrations of 50, 100, and 200 μM. After 1 hour of peptide treatment, a degree of penetration of the peptide into cells was observed using a confocal scanning fluorescence microscope […]. Cell nuclei were stained using 4′,6-diamidino-2-phenylindole (DAPI, Thermo Fisher, D1306). DIC represents the case observed under a general microscope, Nuceli represents the nucleus of a cell, Peptide represents the degree of penetration of a peptide bound to rhodamine B, and MERGE represents an image that overlaps images of DIC, Nuclei, and the penetrated peptide.
# [1] = test system: gingival tissue of a rabbit; assay: Tissue penetration ability in animal tissue, rabbit; assay type: in vivo; settings: living rabbit
# Description: (§2) The amine group of the peptide having the amino acid of SEQ ID NO: 1 was labeled with fluorescence using Alexa Fluor™ 680 NHS Ester (Thermo Fisher, A20008). The fluorescent labeling method followed the method provided by the manufacturer. The fluorescently labeled peptide was dissolved in water for injection at a concentration of 250 mg/ml, and 10 μL was injected into the gingival sulcus of the premolars of an adult dog (beagle dog) and the anterior gingival sulcus of a rabbit. After 2 hours, to check the permeability of the peptide in the tissue, the animal was sacrificed, the gingival tissue was collected, and tissues were embedded using Tissue-Tek® O.C.T. Compound (Sakura Finetek, 4583). After sectioning the embedded tissue at 10 μm thickness, fluorescently labeled peptides were confirmed using a confocal scanning fluorescence microscope. The nuclei of tissue cells were stained using DAPI.
# [2] = test system: gingival tissue of an adult dog; assay: Tissue penetration ability in animal tissue, adult dog; assay type: in vivo, adult dog (beagle dog)
# Description: as §2
smiles,measurement,setting,value
"C[C@@H](O)[C@H](NC(=O)[C@H](CO)NC(=O)[C@H](CS)NC(=O)[C@H](CCCCN)NC(=O)CN)C(=O)N[C@@H](CCCNC(=N)N)C(=O)NCC(=O)N[C@@H](CCCNC(=N)N)C(=O)N[C@@H](CCCCN)C(=O)N[C@@H](CO)C(=O)N[C@@H](CO)C(=O)N[C@@H](CCCNC(=N)N)C(=O)N[C@@H](CCCNC(=N)N)C(=O)N[C@@H](CCCCN)C(=O)N[C@@H](CCCCN)C(N)=O [SEQ ID NO: 1, GKCSTRGRKSSRRKK] (H-GKCSTRGRKSSRRKK-NH2; N-terminus and C-terminus assumed)","expression of pNFκB, peptide only",pNFκB,no effect
same,"expression of plkBa, peptide only",plkBa,no effect
same,concentration dependence of intracellular fluorescence,Raw264.7 cells,"as the concentration of peptide increased, the intensity of fluorescence also increased"
same,penetration into gingival tissue (in words),[1],penetrated
same,penetration into gingival tissue (in words),[2],penetrated
